In one data set the target is EGFR(T790M,L858R) (Homo sapiens, UniProt P00533, L858R/T790M). Briefly: In vitro kinase assay (Kinase-Glo / ADP-Glo). Format: biochemical. The conditions noted are these: TGI1002 1 µM; means of two independent experiments; read-out: Inhibitory effect (%). As to the method: (§1) All kinase reactions were carried out in 384-well plates. After addition of the compounds, kinase and ATP-substrate were added to the assay plates successively, the assay plates were centrifuged at 1,000 x g for 1 min and incubated for 1 h at 30 °C. Then, Kinase-Glo Plus or ADP-Glo reagent was added to each well. In Kinase-Glo assay, after addition of the reagent for 20 min, the luminescence was measured on an EnVision Multilabel Plate Reader (Perkin-Elmer). In ADP-Glo assay, after addition of the reagent for 40 min, Kinase Detection Reagent was added and incubated for another 30 min at 27 °C, and then the luminescence was measured. Kinase inhibition rates were calculated per manufacturer's instructions.

For a further data set, the target named is PKCα (Homo sapiens, UniProt P17252). Briefly: In vitro kinase assay (Kinase-Glo / ADP-Glo). Format: biochemical. The conditions noted are these: TGI1002 1 µM; means of two independent experiments; read-out: Inhibitory effect (%). As to the method: as §1
On the technique in general: Kinase-Glo measures the ATP left after a reaction by luminescence.

A further data set deals with PLK2 (Homo sapiens, UniProt Q9NYY3). Briefly: In vitro kinase assay (Kinase-Glo / ADP-Glo). Conditions: TGI1002 1 µM; means of two independent experiments; read-out: Inhibitory effect (%). Format: biochemical. As to the method: as §1
For a further data set, the target named is p38α (Homo sapiens, UniProt Q16539). Briefly: In vitro kinase assay (Kinase-Glo / ADP-Glo). Format: biochemical. Conditions: TGI1002 1 µM; means of two independent experiments; read-out: Inhibitory effect (%). As to the method:
as §1

The subject of the next data set is K562 cells. Briefly: Cytotoxicity assay (CellTiter-Glo). The format is cell-based, human. As to the method: Twenty types of tumor cell lines were seeded at 4000 cells per well in 96-well plates. […] Cell viability was measured with the CellTiter-Glo Luminescent Cell Viability Assay (Promega) according to the manufacturer's instructions. Luminescence was measured using an EnVision Multilabel Plate Reader (Perkin-Elmer). The cytotoxicity of TGI1002 was expressed as the percentage of luminescence relative to that of untreated cells.
For orientation: ATP-based viability assays read luminescence as a measure of living cells.

For another data set, the system named is HT-29 cells. Briefly: Cytotoxicity assay (CellTiter-Glo). The conditions noted are these: 120 h, panel of 20 tumor cell lines. Format: cell-based, human. As to the method:
(§2) Twenty types of tumor cell lines were seeded at 4000 cells per well in 96-well plates. TGI1002 dissolved in phosphate saline was added to cells at final concentrations ranging from 0.5 nM to 100 μM for 120 h. Cell viability was measured with the CellTiter-Glo Luminescent Cell Viability Assay (Promega) according to the manufacturer's instructions. Luminescence was measured using an EnVision Multilabel Plate Reader (Perkin-Elmer). The cytotoxicity of TGI1002 was expressed as the percentage of luminescence relative to that of untreated cells.

Another data set deals with PC-3 cells. Briefly: Cytotoxicity assay (CellTiter-Glo). Format: cell-based, human. Conditions: 120 h, panel of 20 tumor cell lines. As to the method: as §2
The target in data set [1] is T1, recombinant human SET protein (Homo sapiens, UniProt Q01105).
T1 construct: Genes encoding the full length of human SET (GenBank No.: AAA60318.1) was synthesized; made in house; host or cells: E. coli (pET-21a)
Briefly: Microscale thermophoresis (MST) binding to NT647-labeled SET. The conditions noted are these: 15 μM NT647-labeled SET, PBS pH 8.0, 25 °C. As to the method: Thermophoresis analysis was performed during 30 s on a NanoTemper Monolith NT.115 instrument (20% LED, 40% MST power) at 25 °C.

The subject of a further data set is PP2A. Briefly: PP2Ac immunoprecipitation phosphatase assay in K562 cells. Conditions: 10 μM, 24 h. Format: cell-based, human. As to the method: PP2A assay from whole cell lysates was carried out using commercial PP2Ac immunoprecipitation phosphatase assay kit (Millipore). Briefly, 200 μg protein lysates prepared as described above, 4 μg PP2Ac-specific antibody, and 40 μL protein A-agarose were added to TBS buffer (20 mM Tris-HCl, 150 mM NaCl, and 0.1% Tween 20) to a final volume of 500 μL and immunoprecipitation was carried out at 4 °C for 2 h. The immunoprecipitates were used in the phosphatase reaction following the manufacturer's protocol.

For another data set, the target named is T2, SET-PP2A interaction (Homo sapiens, UniProt Q01105).
T2 construct: SET and PP2Ac protein complexes were immunoprecipitated; endogenous in cells; host or cells: K562
Briefly: Co-immunoprecipitation of SET and PP2Ac in K562 cells. Format: cell-based. Conditions: 24 h. As to the method:
(§3) Protein samples (40 μg) were resolved on SDS-PAGE gels, transferred onto PVDF membranes (Millipore) and incubated overnight with primary antibodies to β-tubulin, BCR-ABL, p-BCR-ABL, SET, PP2Ac and p-PP2Ac. The membranes were incubated with horseradish peroxidase (HRP)-conjugated secondary antibody for 1 h, and the bands were visualized using an ECL detection kit following the manufacturer's instructions. For immunoprecipitation, cells were lysed in 20 mM Tris-HCl (pH 7.0), 150 mM NaCl, 1 mM EDTA, 1 mM MgCl and 0.5% NP-40 supplemented with a cocktail of protease and phosphatase inhibitors (Roche). Lysates (200 μg) were incubated with primary antibodies (1 μg) against SET or PP2Ac at 4 °C for 10 h, protein A/G plus agarose beads were then added for immunoprecipitation overnight at 4 °C. After wash, the immunoprecipitated proteins were separated by SDS-PAGE and analyzed by Western blotting.

A further data set has as its system BCR-ABL. Briefly: Western blot of BCR-ABL expression in K562 cells. Format: cell-based, human. As to the method:
as §3
(In general: Immunoblotting shows a protein as a band on a membrane.)

The subject of data set [2] is BaF3-p210^T315I tumor xenografts. Briefly: In vivo anti-tumor efficacy, subcutaneous xenograft. The arrangement: species or system BALB/c mice. Conditions: for inhibition of tumor growth, in terms of tumor volume: day 20 post-injection of BaF3-p210^T315I cells. As to the method:
BABL/c male mice from SLRC Experimental Animal Center were bred under pathogen-free conditions and were used for experiments at 6-8 weeks of age. Animal experiments were performed according to institutional and national guidelines. BaF3-p210^T315I cells were implanted subcutaneously into the right flank of nude mice (200 μL of a 1 × 10^7cells suspension in serum free medium). When tumors became large enough for caliper measurement, tumor volumes were calculated as (length × width^2) × 0.5. […] At the end of the experiments, tumors were dissected and photographed, and wet weights of each tumor were measured.

Chain of PLK2 (Q9NYY3 whole entry): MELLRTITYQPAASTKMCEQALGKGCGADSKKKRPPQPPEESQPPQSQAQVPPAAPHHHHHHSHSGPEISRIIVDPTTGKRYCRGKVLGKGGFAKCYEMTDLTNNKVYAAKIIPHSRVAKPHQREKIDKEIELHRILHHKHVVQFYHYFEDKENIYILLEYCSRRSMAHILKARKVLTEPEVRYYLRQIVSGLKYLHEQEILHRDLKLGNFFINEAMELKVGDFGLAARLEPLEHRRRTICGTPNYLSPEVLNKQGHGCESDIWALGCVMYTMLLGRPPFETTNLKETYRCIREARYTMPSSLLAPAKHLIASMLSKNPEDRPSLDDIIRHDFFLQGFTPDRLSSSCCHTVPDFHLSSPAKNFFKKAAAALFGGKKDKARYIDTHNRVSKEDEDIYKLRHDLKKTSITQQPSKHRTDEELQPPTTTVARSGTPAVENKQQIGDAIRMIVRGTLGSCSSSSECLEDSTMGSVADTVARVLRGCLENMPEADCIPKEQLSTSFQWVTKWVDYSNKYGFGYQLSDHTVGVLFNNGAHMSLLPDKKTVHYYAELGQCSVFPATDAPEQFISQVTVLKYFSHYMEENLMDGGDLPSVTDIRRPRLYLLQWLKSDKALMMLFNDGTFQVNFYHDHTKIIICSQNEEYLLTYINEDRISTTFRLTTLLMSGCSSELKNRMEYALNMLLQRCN
T2 sequence (Q01105 whole entry): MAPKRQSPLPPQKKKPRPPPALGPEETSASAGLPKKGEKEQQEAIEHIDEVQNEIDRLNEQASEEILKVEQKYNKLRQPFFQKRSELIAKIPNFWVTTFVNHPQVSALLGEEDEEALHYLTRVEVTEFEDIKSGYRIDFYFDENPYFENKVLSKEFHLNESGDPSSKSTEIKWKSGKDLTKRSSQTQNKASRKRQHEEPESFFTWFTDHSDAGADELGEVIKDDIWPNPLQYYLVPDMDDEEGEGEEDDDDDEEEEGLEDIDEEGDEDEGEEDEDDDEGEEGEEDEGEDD
Chain of EGFR(T790M,L858R) (P00533 25-1210 T790M/L858R): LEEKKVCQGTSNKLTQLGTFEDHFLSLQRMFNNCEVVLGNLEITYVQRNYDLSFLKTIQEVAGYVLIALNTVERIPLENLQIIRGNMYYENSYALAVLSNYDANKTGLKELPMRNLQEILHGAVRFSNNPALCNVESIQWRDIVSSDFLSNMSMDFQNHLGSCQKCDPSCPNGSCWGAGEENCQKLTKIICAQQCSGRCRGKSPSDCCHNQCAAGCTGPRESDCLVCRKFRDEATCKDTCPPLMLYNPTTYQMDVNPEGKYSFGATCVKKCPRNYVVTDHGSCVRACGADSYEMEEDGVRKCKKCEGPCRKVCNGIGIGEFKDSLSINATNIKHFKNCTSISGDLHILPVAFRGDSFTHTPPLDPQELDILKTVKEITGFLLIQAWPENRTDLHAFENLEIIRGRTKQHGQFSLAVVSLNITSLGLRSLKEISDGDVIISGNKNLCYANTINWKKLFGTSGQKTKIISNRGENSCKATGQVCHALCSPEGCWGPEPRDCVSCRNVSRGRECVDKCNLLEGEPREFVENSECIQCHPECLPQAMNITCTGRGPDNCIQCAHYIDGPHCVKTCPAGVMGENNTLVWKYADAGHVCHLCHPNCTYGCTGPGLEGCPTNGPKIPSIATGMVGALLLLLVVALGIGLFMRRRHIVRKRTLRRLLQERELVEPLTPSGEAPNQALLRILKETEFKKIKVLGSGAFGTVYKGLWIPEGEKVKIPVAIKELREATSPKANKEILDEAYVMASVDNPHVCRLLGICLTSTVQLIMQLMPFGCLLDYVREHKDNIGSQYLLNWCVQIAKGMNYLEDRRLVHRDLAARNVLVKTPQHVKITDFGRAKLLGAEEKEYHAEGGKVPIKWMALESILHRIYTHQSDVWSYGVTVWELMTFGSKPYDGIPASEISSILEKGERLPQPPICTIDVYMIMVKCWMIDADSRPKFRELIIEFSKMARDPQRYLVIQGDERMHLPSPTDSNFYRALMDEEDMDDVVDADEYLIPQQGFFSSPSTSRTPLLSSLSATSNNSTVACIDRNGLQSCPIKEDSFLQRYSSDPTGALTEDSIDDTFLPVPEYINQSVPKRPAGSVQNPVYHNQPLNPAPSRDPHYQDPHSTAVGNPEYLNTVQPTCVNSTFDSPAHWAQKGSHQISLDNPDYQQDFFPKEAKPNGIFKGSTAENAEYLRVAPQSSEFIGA
Chain of p38α (Q16539 whole entry): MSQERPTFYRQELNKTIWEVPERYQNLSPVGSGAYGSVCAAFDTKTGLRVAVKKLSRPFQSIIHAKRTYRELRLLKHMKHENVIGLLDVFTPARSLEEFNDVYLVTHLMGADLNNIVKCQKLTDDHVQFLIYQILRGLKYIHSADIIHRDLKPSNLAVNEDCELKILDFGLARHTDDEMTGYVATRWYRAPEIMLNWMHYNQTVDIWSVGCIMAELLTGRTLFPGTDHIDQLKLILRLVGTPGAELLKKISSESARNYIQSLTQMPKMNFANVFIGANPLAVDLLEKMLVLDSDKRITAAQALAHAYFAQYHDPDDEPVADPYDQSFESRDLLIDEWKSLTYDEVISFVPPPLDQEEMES
T1 sequence (Q01105 1-277 isoform Q01105-2): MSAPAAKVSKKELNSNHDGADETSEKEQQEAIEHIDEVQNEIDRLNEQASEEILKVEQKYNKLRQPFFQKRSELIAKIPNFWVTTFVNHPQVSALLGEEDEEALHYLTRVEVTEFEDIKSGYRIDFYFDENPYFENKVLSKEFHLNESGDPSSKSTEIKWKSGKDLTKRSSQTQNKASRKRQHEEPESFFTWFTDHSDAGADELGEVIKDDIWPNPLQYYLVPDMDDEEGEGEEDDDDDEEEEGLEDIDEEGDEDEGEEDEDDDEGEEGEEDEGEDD

For the compound `Cc1ccc(NC(=O)c2cccc(CN3CCN(C)CC3)c2)cc1Oc1nccc(-c2cccnc2)n1.Cl` [TGI1002, N-(4-methyl-3-((4-(pyridin-3-yl)-pyrimidin-2-yl)oxy)phenyl)-3-((4-methylpiperazin-1-yl)methyl)benzamide hydrochloride], the inhibition at 1 µM at EGFR(T790M,L858R) is 8.74%; at PKCα, 5.57%; at PLK2, 3.52%; at p38α it was 2.17%. For the same compound, the IC50 (as a rule, the concentration that gives 50% inhibition) with K562 cells (Homo sapiens, 72 h, cell viability) amounted to 11 ± 1.98 µM. Further, the “fold less potent than imatinib” value in the data set on K562 cells (IC50 at 72 h) is listed as “approximately 35 fold”. Moreover, the cytotoxicity result in the data set on HT-29 cells and in the data set with PC-3 cells was “cytotoxic effects” throughout. The Kd (as a rule, the concentration at which binding is half-saturated) in [1] came to 1.66 ± 0.45 µM. Besides, the “PP2A activity enhanced compared to untreated cells” value in the data set with PP2A is listed as 144.67 ± 5.51%. Moreover, the “association between SET and PP2A” value at SET-PP2A interaction is “trend of decrease”. For the same compound, the “expression level of BCR-ABL” value in the data set on BCR-ABL was “not affected”. In addition, the “inhibition of tumor growth, in terms of tumor volume” value was determined as 51.07% in data set [2] (30 mg/kg i.p. daily), 53.15% in data set [2] (45 mg/kg i.p. daily) and 68.01% in data set [2] (60 mg/kg i.p. daily). The body weight entry in [2] (30, 45 and 60 mg/kg i.p. daily, tumor-bearing mice) is reported as “without loss of body weight”. In addition, in [2] (TGI1002 30, 45, 60 mg/kg, imatinib, ponatinib 10 mg/kg, i.p. daily), the “final tumor volume and weight compared to vehicle group” value was “markedly lower”.

The record behind these values is paper PMC4494927, “Discovery of a small molecule targeting SET-PP2A interaction to overcome BCR-ABLT315I mutation of chronic myeloid leukemia” (Oncotarget, 2015).
